Patent US6737383B1, “Herbicidal oxadiazolidines” (priority 1999, dated 2004)

Experiments:
[1] = tested on: bedstraw; assay: Test B pre/postemergence bedstraw; assay type: in vivo, Galium aparine; details: Preemergence
Outline: (§1)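 Response is a visual 0-to-10 score relative to untreated plants, where 0 means no effect and 10 means complete control, taken twelve to sixteen days after application. Treatments went onto soil at planting and onto foliage of 1- to 4-leaf plants, using a surfactant-containing non-phytotoxic solvent.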

[2] = tested on: velvetleaf; assay: Test B pre/postemergence velvetleaf; assay type: in vivo, Abutilon theophrasti
Outline: as §1

[3] = tested on: rape; assay: Test B pre/postemergence rape; assay type: in vivo, Brassica napus
Outline: as §1

[4] = tested on: purple nutsedge; assay: Test B pre/postemergence purple nutsedge; assay type: in vivo, Cyperus rotundus
Outline: as §1

[5] = tested on: wild oat; assay: Test B pre/postemergence wild oat; assay type: in vivo, Avena fatua
Outline: as §1

[6] = tested on: smallflower flatsedge; assay: Test B flood test smallflower flatsedge; assay type: in vivo, Cyperus difformis
Outline: (§2)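 Flood test on plants grown to the 2-leaf stage; treated plants kept in greenhouse twelve to sixteen days, then visually rated against controls on a 0 (no effect) to 10 (complete control) scale.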

[7] = tested on: crabgrass; assay: Test B pre/postemergence crabgrass; assay type: in vivo, Digitaria sanguinalis
Outline: as §1

[8] = tested on: soybean; assay: Test B pre/postemergence soybean; assay type: in vivo, Glycine max
Outline: as §1

[9] = tested on: pigweed; assay: Test B pre/postemergence pigweed; assay type: in vivo, Amaranthus retroflexus
Outline: as §1

[10] = tested on: rice; assay: Test B flood test rice; assay type: in vivo, Oryza sativa
Outline: as §2

[11] = tested on: wheat; assay: Test B pre/postemergence wheat; assay type: in vivo, Triticum aestivum
Outline: as §1

[12] = tested on: blackgrass; assay: Test B pre/postemergence blackgrass; assay type: in vivo, Alopecurus myosuroides
Outline: as §1

[13] = tested on: corn; assay: Test B pre/postemergence corn; assay type: in vivo, Zea mays
Outline: as §1

[14] = tested on: sugar beet; assay: Test B pre/postemergence sugar beet; assay type: in vivo, Beta vulgaris
Outline: as §1

[15] = tested on: giant foxtail; assay: Test B pre/postemergence giant foxtail; assay type: in vivo, Setaria faberii
Outline: as §1

[16] = tested on: morningglory; assay: Test B pre/postemergence morningglory; assay type: in vivo, Ipomoea hederacea
Outline: as §1

[17] = tested on: surinam grass; assay: Test B pre/postemergence surinam grass; assay type: in vivo, Brachiaria decumbens
Outline: as §1

[18] = tested on: duck salad; assay: Test B flood test duck salad; assay type: in vivo, Heteranthera limosa
Outline: as §2

[19] = tested on: bamyardgrass; assay: Test B flood test barnyardgrass; assay type: in vivo, Echinochloa crus-galli
Outline: as §2

[20] = tested on: cocklebur; assay: Test B pre/postemergence cocklebur; assay type: in vivo, Xanthium strumarium
Outline: as §1

[21] = Postemergence, Rate 125 g/ha, scale of 0 to 10 where 0 is no effect and 10 is complete control
[22] = Postemergence, Rate 250 g/ha, scale of 0 to 10, 0 is no effect, 10 is complete control
[23] = Postemergence, Rate 500 g/ha, scale of 0 to 10 where 0 is no effect and 10 is complete control
[24] = Preemergence, Rate 62 g/ha, scale 0 to 10 (0 no effect, 10 complete control)
[25] = Preemergence, Rate 125 g/ha, scale of 0 to 10 where 0 is no effect and 10 is complete control
[26] = Preemergence, Rate 500 g/ha, scale of 0 to 10 where 0 is no effect and 10 is complete control
[27] = Postemergence, Rate 62 g/ha, scale of 0 to 10, 0 is no effect, 10 is complete control
[28] = Rate 62 g/ha, flood test species, Pre-emergence, visual evaluation after twelve to sixteen days
[29] = Rate 125 g/ha, under heading Pre-emergence, flood test species, visual evaluation after twelve to sixteen days
[30] = Rate 250 g/ha, Pre-emergence (flood test species), scale 0 to 10, 0 is no effect, 10 is complete control
[31] = Rate 500 g/ha, Pre-emergence section of Table B, 0 to 10 scale (0 no effect, 10 complete control)

COC(C)n1c(=O)on(C(=O)N(c2ccc(F)cc2F)C(C)C)c1=O (stereo not drawn) [Compound 593]
1: Plant response rating, Soybean [8, 23]
0: Bedstraw plant response rating ([1]; Rate 62 g/ha, scale 0 to 10 (0 no effect, 10 complete control)) | Bedstraw plant response rating (0 to 10 scale) ([1]; Rate 250 g/ha) | Plant response rating, Velvetleaf [2, 21] | Velvetleaf plant response rating [2, 22] | Plant response rating, Velvetleaf [2, 23] | Velvetleaf plant response rating [2, 24] | Velvetleaf plant response rating [2, 25] | Plant response rating, Velvetleaf [2, 26] | Rape plant response rating [3, 27] | Plant response rating, Rape [3, 21] | Rape plant response rating [3, 22] | Plant response rating, Rape [3, 23] | Rape plant response rating [3, 24] | Rape plant response rating [3, 25] | Plant response rating, Rape [3, 26] | Nutsedge plant response rating [4, 27] | Plant response rating, Nutsedge [4, 21] | Nutsedge plant response rating [4, 22] | Plant response rating, Nutsedge [4, 23] | Nutsedge plant response rating [4, 24] | Nutsedge plant response rating [4, 25] | Plant response rating, Wild oats [5, 21] | Wild oats plant response rating [5, 22] | Plant response rating, Wild oats [5, 23] | Wild oats plant response rating [5, 24] | Wild oats plant response rating [5, 25] | Plant response rating, Wild oats [5, 26] | Plant response rating, S. Flatsedge (0 to 10 scale, 0 is no effect, 10 is complete control) [6, 28] | S. Flatsedge plant response rating (0 to 10 scale, 0 is no effect, 10 is complete control) [6, 29] | S. Flatsedge plant response rating [6, 30] | S. Flatsedge plant response rating [6, 31] | Crabgrass plant response rating [7, 27] | Plant response rating, Crabgrass [7, 21] | Crabgrass plant response rating [7, 22] | Crabgrass plant response rating [7, 24] | Crabgrass plant response rating [7, 25] | Plant response rating, Crabgrass [7, 26] | Plant response rating, Soybean [8, 21] | Soybean plant response rating [8, 22] | Soybean plant response rating [8, 24] | Soybean plant response rating [8, 25] | Plant response rating, Soybean [8, 26] | Plant response rating, Redroot pigweed [9, 21] | Redroot pigweed plant response rating [9, 22] | Plant response rating, Redroot pigweed [9, 23] | Redroot pigweed plant response rating [9, 24] | Redroot pigweed plant response rating [9, 25] | Plant response rating, Redroot pigweed [9, 26] | Plant response rating, Rice (0 to 10 scale, 0 is no effect, 10 is complete control) [10, 28] | Rice plant response rating (0 to 10 scale, 0 is no effect, 10 is complete control) [10, 29] | Rice plant response rating [10, 30] | Rice plant response rating [10, 31] | Plant response rating, Wheat [11, 21] | Wheat plant response rating [11, 22] | Plant response rating, Wheat [11, 23] | Wheat plant response rating [11, 24] | Wheat plant response rating [11, 25] | Plant response rating, Wheat [11, 26] | Blackgrass plant response rating [12, 27] | Plant response rating, Blackgrass [12, 21] | Blackgrass plant response rating [12, 22] | Plant response rating, Blackgrass [12, 23] | Blackgrass plant response rating [12, 24] | Blackgrass plant response rating [12, 25] | Blackgrass plant response rating (0 to 10 scale) ([12]; Preemergence, Rate 250 g/ha) | Blackgrass plant response rating [12, 26] | Corn plant response rating [13, 27] | Plant response rating, Corn [13, 21] | Corn plant response rating [13, 22] | Plant response rating, Corn [13, 23] | Corn plant response rating [13, 24] | Corn plant response rating [13, 25] | Corn plant response rating (0 to 10 scale) ([13]; Preemergence, Rate 250 g/ha) | Plant response rating, Corn [13, 26] | Plant response rating, Sugarbeets [14, 21] | Sugarbeets plant response rating [14, 22] | Plant response rating, Sugarbeets [14, 23] | Sugarbeets plant response rating [14, 24] | Sugarbeets plant response rating [14, 25] | Plant response rating, Sugarbeets [14, 26] | Giant foxtail plant response rating [15, 27] | Plant response rating, Giant foxtail [15, 21] | Giant foxtail plant response rating [15, 22] | Plant response rating, Giant foxtail [15, 23] | Giant foxtail plant response rating [15, 24] | Giant foxtail plant response rating [15, 25] | Plant response rating, Giant foxtail [15, 26] | Morningglory plant response rating [16, 27] | Plant response rating, Morningglory [16, 21] | Morningglory plant response rating [16, 22] | Morningglory plant response rating [16, 24] | Morningglory plant response rating [16, 25] | Plant response rating, Morningglory [16, 26] | B. signalgrass plant response rating [17, 27] | Plant response rating, B. signalgrass [17, 21] | B. signalgrass plant response rating [17, 22] | Plant response rating, B. signalgrass [17, 23] | B. signalgrass plant response rating [17, 24] | B. signalgrass plant response rating [17, 25] | B. signalgrass plant response rating (0 to 10 scale, 0 is no effect, 10 is complete control) ([17]; Preemergence, Rate 250 g/ha) | B. signalgrass plant response rating [17, 26] | Plant response rating, Ducksalad (0 to 10 scale, 0 is no effect, 10 is complete control) [18, 28] | Ducksalad plant response rating (0 to 10 scale, 0 is no effect, 10 is complete control) [18, 29] | Ducksalad plant response rating [18, 30] | Ducksalad plant response rating [18, 31] | Plant response rating, Barnyardgrass (0 to 10 scale, 0 is no effect, 10 is complete control) [19, 28] | Barnyardgrass plant response rating (0 to 10 scale, 0 is no effect, 10 is complete control) [19, 29] | Barnyardgrass plant response rating [19, 30] | Barnyardgrass plant response rating [19, 31] | Cocklebur plant response rating [20, 27] | Plant response rating, Cocklebur [20, 21] | Cocklebur plant response rating [20, 22] | Plant response rating, Cocklebur [20, 23] | Cocklebur plant response rating [20, 24] | Cocklebur plant response rating [20, 25] | Cocklebur plant response rating (0 to 10 scale) ([20]; Preemergence, Rate 250 g/ha) | Plant response rating, Cocklebur [20, 26]
2: Plant response rating, Nutsedge [4, 26] | Plant response rating, Morningglory [16, 23]
